Data published in patent US8080582B2, “Derivatives of 8-epiblechnic acid and their effects on down-regulation of endothelin (ETA) receptor mRNA” (ScinoPharm Taiwan Ltd., priority 2008, dated 2011).

What was measured:
Type in all cases: cell-based
[1] = tested on: ETAR gene expression in MCF-7 cells; test: PCR of ETAR gene expression in MCF-7 cancer cells; details: 48 hrs
Procedure: PC-3 and MCF-7 cancer cells were treated with Sal-B and EBA for 48 hrs, and the identical concentrations of cellular whole RNA were sampled for the synthesis of cDNA by using reverse transcriptase. The PCR method was then used to compare the amounts of endothelin receptor mRNA expression. While the PC-3 cells were treated with either Sal-B or EBA, its ETAR gene expression was not reduced.

ETAR mRNA expression = test: Real-time quantitative RT-PCR of ETAR mRNA in smooth muscle cells (A10); details: vascular smooth muscle cells, 100 μg/ml, 48 hrs
Procedure: Extraction of cellular RNA: Subculturing smooth muscle cells to 100-mm culture dishes. After the cells had filled the culture dishes, Sal-B and its analogs were added to treat the cells for 48 hrs. After that, 1×PBS solutions were added to wash the cells three times. After adding 1 ml TRIzol, the cells were scraped off and placed in 1.5 ml micro-centrifuge tubes. Following the addition of 0.2 ml chloroform to each tube, the tubes were shaken, left at room temperature for 3 min., and run in a centrifuge at 12,000 rpm for 15 min. The supernatant liquid was removed and the cells placed in new micro-centrifuge tubes. After adding an amount of isopropyl alcohol equivalent to one-half of the volume of the supernatant liquid, and mixing until homogeneous, the samples were allowed to stand at room temperature for 10 min. The supernatant liquid was removed after centrifugation at 12,000 rpm for 10 min. 1 ml 70% alcohol was added to wash out salts, followed by centrifugation for 5 min. and removal of supernatant liquid. The samples were dissolved in 50 μl DEPC-H2O after drying.
(1) cDNA synthesis: 1 μl Random hexamer primer (20 μM) and 1 μl dNTP(10 mm) were added to 3 μg RNA, which was allowed to react at 65° C. for 5 min., and then placed on ice promptly. After the addition of 2 μl 10× reaction buffer, 0.5 μl RNaseOUT (40 unit/μl) and 1 μl SuperScript III RT (200 unit/μl), the solution was mixed until homogeneous, and allowed to react at 50° C. for 50 min. After that, the mixture was heated to 85° C. for 5 min. to terminate the enzymatic reaction. The samples were preserved at −70° C. for later use.
(2) PCR quantitative analysis: After adding 7.5 μl PCR primer mix (400 nm each) and 15 μl SYBR Green dye reagent to the 7.5 μl cDNA template, the solution was placed in Bio-Rad's iCycler for PCR reaction. The resulting data was inputted into Gene Expression Analysis for iCycler iQ Real-Time PCR Detection System for quantitative analysis of gene expression.
Furthermore, after treating vascular smooth muscle cells with 100 μg/ml of either Sal-B or EBA for 48 hrs, the identical concentrations of cellular whole RNA were sampled for the synthesis of cDNA by using reverse transcriptase. The PCR method was employed to determine the amounts of endothelin receptor mRNA expression. […] For the analysis of ETAR mRNA expression by using the real-time PCR method, vascular smooth muscle cells at full confluence 100-mm culture dishes were treated with 100 μg/ml of either Sal-B or EBA for 48 hrs. The identical concentrations of cellular whole RNA were sampled for the synthesis of cDNA by using reverse transcriptase. The real-time PCR method was used to compare the amounts of ETAR mRNA expression.
The different analogs, compounds A to F, had different effects on ETAR mRNA expression. The control group represented treating smooth muscle cells (A10) with DMSO, and the positive control group represented treating the cells with Sal-B. The smooth muscle cells were treated with 0.2 mM Sal-B and compounds A to F for 48 hrs. The identical concentrations of cellular RNA were sampled for the synthesis of cDNA by using reverse transcriptase. The real-time PCR method was employed to determine the amounts of ETAR mRNA expression. Compared with the control group, compound B had the least effect on down-regulating ETAR mRNA expression, as approximately 50% of the ETAR mRNA remained after the treatment. […]

ETBR protein expression = test: Western blot of ETBR protein expression in vascular smooth muscle cells; details: 100 μg/ml, 48 hrs
Procedure: The smooth muscle cells (5×10^5 cells in 35 mm culture dish) were treated with Sal-B and its analogs for 48 hrs, and then a proteinase inhibitor solution was used to collect proteins from the cells.
The protein concentrations in the samples were calculated by using BSA as the standards to construct a standard curve. After mixing Bradford Protein assay reagent evenly with the standards or the samples, the OD595 absorption values were measured. Standard curve was constructed by plotting OD595 values of the BSA standards versus their concentrations. The protein concentrations of the samples were calculated from the standard curve.
Bio-Rad's Mini-Protean III Dual Slab Cell instrument was used. A 12% polyacrylamide separating gel solution was prepared and placed into a electrophoretic gel preparation device. Deionized water was added to flat the surface of the separating gel solution, and the water was poured off after the gel had coagulated. A stacking gel solution containing 5% polyacrylamide was added and then a comb was inserted. The comb was removed after the stacking gel had coagulated, and the gel was placed into an upright electrophoresis tank. A suitable amount of running buffer was added, and then the protein samples were loaded into the wells of stacking gel layer. […]

| Compound | ETAR gene (mRNA) expression [1] | ETAR mRNA expression, % of that in the control (ETAR mRNA expression) | ETBR protein expression compared with control (ETBR protein expression) |
| --- | --- | --- | --- |
| epiblechnic acid [EBA] | reduced significantly | roughly 51% | no effect on ETBR protein expression |
| O=C(/C=C/c1ccc(O)c2c1[C@H](C(=O)O[C@H](Cc1ccc(O)c(O)c1)C(=O)[O-])[C@@H](c1ccc(O)c(O)c1)O2)O[C@H](Cc1ccc(O)c(O)c1)C(=O)[O-].[Mg+2] [Sal-B, magnesium lithospermate B] | can reduce the expression of ETAR mRNA | approximately 27% | no effect on ETBR protein expression |
